In patent publication US8592590B2, “Tetrahydrotriazolopyridine compounds as selective MGLU5 receptor potentiators useful for the treatment of schizophrenia” (Eli Lilly and Company, priority 2009, dated 2013):

Legend:
Male Lister hooded rats = test: Delayed matching to position task (DMTP) in rats, deficit induced by NMDA antagonist SDZ 220,581; format: in vivo, rat
Excerpt: The delayed matching to position task (DMTP) has been used to study working memory in rats. Working memory in this context is the retention and use of information that is available only during an individual trial. The study of compounds which modulate NMDA receptors in DMTP has been used to identify the importance of NMDA receptors in learning and memory. More specifically, studies have shown competitive NMDA antagonists to induce impairment of DMTP in rats. Compounds which show a positive effect in attenuating deficits induced by competitive NMDA antagonists in rats are believed to be useful in treating cognitive disorders in humans.
Male Lister hooded rats are housed in groups of 4 and are maintained on a food-restricted diet and a 12-hour light dark cycle. The experiments are conducted during the same part of the light phase each day.
Standard operant chambers, housed in sound and light attenuating chambers are used. Each chamber comprised a house light, two retractable levers, each with a stimulus light above it. The levers are located either side of a recessed magazine where food pellets are delivered from an automatic pellet dispenser. Start of a session is signaled by onset of the house light, and its permanent offset indicated the end of a session. Experimental sessions are controlled and data is recorded and analyzed.
Sample Phase. A trial begins with a one of the levers extending into the chamber. The stimulus light above the lever is illuminated. If the lever is pressed, it is retracted and the stimulus light extinguished. This initiates the pseudo-randomly selected delay period of 1, 2, 4, 8 or 16 seconds during training or 1, 12, or 32 seconds during test.
Head Entry. After this delay period is complete, animals are required to make a head entry into the food hopper within 10 seconds, if an appropriate response is made both levers are extended into the chamber. If no response is made during this period, the house-light is extinguished and the trial counted as an omission.
Choice Phase. If animals make the appropriate head entry response and the levers extended into the operant chamber, they have 10 seconds which to make their response. A correct response consists of an animal pressing the same lever that is extended into the chamber during the sample phase. This response results in both levers retracting and a single food pellet being delivered into the food hopper. After a 5 second inter-trial interval the next trial begins. Following an incorrect response, (the animal pressing the opposite lever as had been extended during the sample phase), both levers retract and the house-light is extinguished signaling the end of that trial. After a 5 second time out the next trial begins, signaled by onset of the house-light. If the animal fails to respond within 10 second during the choice phase, the levers retract, the house-light extinguishes and the trial is recorded as an omission.
Overall Session. Each session is terminated after 75 trials (15 pseudo-random presentations of each delay period). Animals are trained to a criterion of greater than 70% accuracy over the entire session with less than 10% omissions of responding. After criterion is reached, rats are trained two times a week in a baseline condition and once a week in a test condition.
Test Compounds. A compound of the present invention stock of 1.0 mg/ml is prepared. For example, 18.7 mg of the compound of Example 11 is weighed and suspended in 18.7 ml vehicle (1% high viscocity cmc, 0.25% tween, 0.05% antifoam). A white suspension is formed. Test compound is administered orally, 60 minutes prior to the start of a session, in a volume of 1 ml/kg.
NMDA antagonist stock, 2.0 mg/ml: […] of SDZ 220,581 is weighed and dissolved in 16.73 ml vehicle (0.09 ml 1M NaOH, made up to volume with 5% glucose). A solution is formed and at a pH 6.5 at time of injection. SDZ 220,581 is administered subcutaneously, 30 minutes prior to the start of a session, in a volume of 1 ml/kg. […]

human mGlu5 receptor = target: T1, human mGlu5 receptor (Homo sapiens, UniProt P41594); test: Functional in vitro activity at human mGlu5 receptor (FLIPR calcium, potentiator mode); format: cell-based; conditions: AV-12 cells expressing human mGlu5, glutamate EC10, relative EC50
T1 construct: expressed in transfected cells
T1 sequence (P41594 21-1212): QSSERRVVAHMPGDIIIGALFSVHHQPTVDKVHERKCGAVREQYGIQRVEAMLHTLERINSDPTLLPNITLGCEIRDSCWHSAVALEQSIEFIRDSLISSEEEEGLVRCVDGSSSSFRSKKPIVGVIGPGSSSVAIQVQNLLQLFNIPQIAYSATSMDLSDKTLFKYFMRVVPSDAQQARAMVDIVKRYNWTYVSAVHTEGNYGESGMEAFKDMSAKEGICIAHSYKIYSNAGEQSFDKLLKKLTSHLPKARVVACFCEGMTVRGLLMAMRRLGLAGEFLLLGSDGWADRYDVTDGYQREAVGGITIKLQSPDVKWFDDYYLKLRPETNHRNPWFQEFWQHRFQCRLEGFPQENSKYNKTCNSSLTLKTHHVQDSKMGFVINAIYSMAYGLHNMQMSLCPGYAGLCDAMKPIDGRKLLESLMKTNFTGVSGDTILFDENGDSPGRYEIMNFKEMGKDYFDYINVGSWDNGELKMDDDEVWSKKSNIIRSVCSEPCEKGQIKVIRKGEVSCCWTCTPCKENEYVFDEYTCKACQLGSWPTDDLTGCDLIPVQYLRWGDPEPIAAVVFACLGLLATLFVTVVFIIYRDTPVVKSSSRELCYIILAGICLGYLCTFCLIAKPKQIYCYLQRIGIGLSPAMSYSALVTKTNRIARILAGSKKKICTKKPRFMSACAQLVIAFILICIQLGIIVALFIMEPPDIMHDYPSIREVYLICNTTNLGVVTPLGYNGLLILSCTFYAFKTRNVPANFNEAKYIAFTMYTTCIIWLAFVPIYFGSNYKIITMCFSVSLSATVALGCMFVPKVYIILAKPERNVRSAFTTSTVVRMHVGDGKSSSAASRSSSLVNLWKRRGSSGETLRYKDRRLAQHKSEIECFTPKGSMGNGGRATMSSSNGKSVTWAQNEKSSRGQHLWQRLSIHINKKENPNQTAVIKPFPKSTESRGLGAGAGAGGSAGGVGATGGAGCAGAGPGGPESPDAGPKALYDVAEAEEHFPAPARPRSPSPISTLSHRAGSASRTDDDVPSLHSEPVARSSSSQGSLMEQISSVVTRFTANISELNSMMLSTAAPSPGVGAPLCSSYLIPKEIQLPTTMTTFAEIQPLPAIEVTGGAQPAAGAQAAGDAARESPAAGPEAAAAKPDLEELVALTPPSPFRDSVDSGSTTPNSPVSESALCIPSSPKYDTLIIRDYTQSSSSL
Procedure: An AV-12 cell line stably expressing the human mGlu5 receptor and co-transfected with the rat glutamate transporter EAAT 1 (Excitatory Amino Acid Transporter 1) are used for these studies (see for example Desai, Burnett, Mayne, Schoepp, Mol. Pharmacol. 48, 648-657, 1995). The cell line is maintained by culturing in Dulbecco's Modified Eagle's Medium (DMEM) with high glucose and pyridoxine hydrochloride supplemented with 5% heat inactivated, dialyzed fetal bovine serum, 1 mM sodium pyruvate, 10 mM HEPES (4-(2-hydroxyethyl)-1-piperazineethanesulfonic acid), 1 mM of L-glutamine, 0.75 mg/ml geneticin and 0.3 mg/ml hygromycin. Sub-confluent cultures are passaged twice per week using 0.25% trypsin-EDTA. […]
Intracellular calcium levels are monitored before and after the addition of compounds using a Fluorometric Imaging Plate Reader (FLIPR, Molecular Devices, Union City, Calif. USA). […] The results are analyzed using (GraphPad® Prism v4, Graphpad Software, LaJolla, Calif., USA) to calculate the concentrations of glutamate needed to induce the EC10 responses.
Compounds are tested in a two-addition FLIPR assay using a 10-point concentration response profile starting at a final concentration of 25 μM (agonist mode) or 12.5 μM (potentiator mode). […] After taking an initial 5-sec fluorescent read on the FLIPR instrument, compound is added to the cell plate (50 ul per well). […]

[1] = Example 11/V: Example 11 1 mg/kg orally 60 min prior, vehicle instead of SDZ

Compound | Trials Completed (Male Lister hooded rats; Example 11/SDZ: Example 11 1 mg/kg orally 60 min prior plus SDZ 220,581 subcutaneously 30 min prior) | % Accuracy (Male Lister hooded rats; [1]) | % Omissions (Male Lister hooded rats; [1]) | Average Correct latency (Male Lister hooded rats; [1]) | Average Incorrect latency (Male Lister hooded rats; [1]) | Head Entries (Male Lister hooded rats; [1]) | Sample latency (Male Lister hooded rats; [1]) | Trials Completed (Male Lister hooded rats; [1]) | deficits induced by SDZ-220,581 in the delayed matching to position assay of working memory (Male Lister hooded rats; concurrent treatment with 1 mg/kg Example 11) | EC50 (human mGlu5 receptor)
CC(C)(C)c1nnc2n1CC[C@H](c1nc(-c3ccc(F)cc3)no1)C2 (single isomer, unassigned) [Example 11] | 72 ± 2 | 75.6 ± 1.6% | 1.2 ± 0.4% | 0.94 ± 0.05 s | 0.98 ± 0.08 s | 2092 ± 83 | 1.84 ± 0.22 s | 75 ± 0 | attenuated all deficits | 36 ± 3.5 nM
CC(C)(C)c1nnc2n1CCC(c1nc(-c3ccc(F)cc3)no1)C2 (racemic) [Example 1, 3-tert-butyl-7-[3-(4-fluorophenyl)-1,2,4-oxadiazol-5-yl]-5,6,7,8-tetrahydro[1,2,4]triazolo[4,3-a]pyridine] | – | – | – | – | – | – | – | – | – | 120 ± 47 nM
